From patent US7767670B2, “Substituted 3-carboxamido isoxazoles as kinase modulators” (Ambit Biosciences Corporation, priority 2003, dated 2010)

Target: T1, MKNK2 (Homo sapiens, UniProt Q9HBH9)
T1 construct: made in house; host or cells: T7 bacteriophage display
Assay: Binding constant (Kd) measurement, phage-displayed kinase competition binding assay
Conditions: immobilized ATP site ligand competition, read-out: activity towards the target (Kd)
Source text: Binding Constant (Kd) Measurements for Small-Molecule-Kinase Interactions

T1 sequence (Q9HBH9 whole entry): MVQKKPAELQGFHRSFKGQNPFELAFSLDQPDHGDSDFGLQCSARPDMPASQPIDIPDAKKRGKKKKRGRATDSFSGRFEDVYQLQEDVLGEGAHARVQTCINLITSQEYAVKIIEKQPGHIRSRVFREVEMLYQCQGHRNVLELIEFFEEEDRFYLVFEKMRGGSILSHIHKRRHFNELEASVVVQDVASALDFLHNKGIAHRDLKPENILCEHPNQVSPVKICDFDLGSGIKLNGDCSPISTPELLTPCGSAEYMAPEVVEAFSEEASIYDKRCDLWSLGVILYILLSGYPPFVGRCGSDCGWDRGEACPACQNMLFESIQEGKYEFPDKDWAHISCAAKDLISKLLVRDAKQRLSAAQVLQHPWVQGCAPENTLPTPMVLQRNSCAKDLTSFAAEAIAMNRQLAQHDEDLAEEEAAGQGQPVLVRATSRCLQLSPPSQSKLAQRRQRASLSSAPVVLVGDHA

Kd: < 50 nM
SMILES: CC(C)(C)c1cc(NC(=O)Cc2ccc(NC(=O)c3ccc4cnccc4n3)cc2)no1 [Compound F2]
